According to patent US20230382904A1, “SUBSTITUTED 4-([1,2,4]TRIAZOLO[1,5-a]PYRIDIN-6-YL)THIOPHENE-2-CARBOXAMIDE DERIVATIVES AND USE THEREOF” (The Johns Hopkins University, priority 2020, published 2023):

Key:
DLK = DLK (Homo sapiens (Human), UniProt Q12852); experiment: DLK biochemical assay (TR-FRET, MKK7 phosphorylation)
How it was run: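 TR-FRET ratio (665/Eu) reports MKK7 T275/S277 phosphorylation, lowered by DLK inhibition. Reaction: 60 μM ATP, 15 nM MKK7, 10 nM DLK catalytic domain, 90 min room temperature; detection incubation 16 h, 37° C. (1536-well) or 4° C. (384-well). Final concentrations.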

LZK = LZK (Homo sapiens (Human), UniProt O43283); experiment: LZK biochemical assay (TR-FRET, MKK7 phosphorylation)
How it was run: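 Readout is the HTRF ratio (XL665/Eu) from an EDTA-containing detection mix of 0.4 nM Eu-anti-phospho-MKK7 (T275/S277) and 20 nM XL665-anti-His, incubated 16 h at 32° C. This followed a 90 min RT reaction of 10 nM LZK catalytic domain, 15 nM MKK7 and 15 μM ATP at pH 7.5.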

DLK, sequence (Q12852 1-520): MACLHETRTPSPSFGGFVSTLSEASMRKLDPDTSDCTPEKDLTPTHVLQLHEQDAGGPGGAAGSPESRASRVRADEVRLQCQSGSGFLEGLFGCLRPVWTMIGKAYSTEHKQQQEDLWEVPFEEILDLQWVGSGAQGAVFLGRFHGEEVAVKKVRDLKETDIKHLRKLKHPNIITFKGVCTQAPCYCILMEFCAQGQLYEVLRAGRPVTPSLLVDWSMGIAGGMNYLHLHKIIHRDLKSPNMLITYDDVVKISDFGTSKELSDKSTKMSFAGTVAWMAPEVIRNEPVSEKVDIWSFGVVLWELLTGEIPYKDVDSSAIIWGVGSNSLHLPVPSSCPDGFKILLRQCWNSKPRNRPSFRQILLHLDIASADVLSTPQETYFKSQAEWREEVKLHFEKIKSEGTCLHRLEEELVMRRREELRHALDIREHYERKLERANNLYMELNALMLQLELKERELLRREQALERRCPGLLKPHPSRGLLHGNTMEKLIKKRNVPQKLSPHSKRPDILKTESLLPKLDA
LZK, sequence (O43283 168-409): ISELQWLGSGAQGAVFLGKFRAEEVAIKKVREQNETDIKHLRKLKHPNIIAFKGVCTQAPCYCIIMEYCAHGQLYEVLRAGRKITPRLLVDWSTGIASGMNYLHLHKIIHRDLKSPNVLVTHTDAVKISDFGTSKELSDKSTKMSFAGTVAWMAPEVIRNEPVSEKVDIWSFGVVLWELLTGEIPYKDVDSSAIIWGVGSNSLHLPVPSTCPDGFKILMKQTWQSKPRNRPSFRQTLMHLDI

IC50 (DLK)	IC50 (LZK)	Structure (SMILES)
0.44 µM	17 µM	Cc1cccc(C)c1NC(=O)c1cc(-c2ccc3nc(N)nn3c2)cs1 [Compound 233]
0.6 µM	> 30 µM	Nc1nc2ccc(-c3csc(C(=O)Nc4ccccc4OC(F)(F)F)c3)cn2n1 [Compound 286]
1.8 µM	19 µM	Cn1ccc(CNC(=O)c2cc(-c3ccc4nc(N)nn4c3)cs2)n1 [Compound 242]
0.38 µM	> 30 µM	COc1cccc(CNC(=O)c2cc(-c3cc(F)c4nc(N)nn4c3)cs2)c1 [Compound 381]
0.835 µM	> 30 µM	Cc1ccccc1NC(=O)c1cc(-c2ccc3nc(N)nn3c2)cs1 [Compound 227]
0.51 µM	14 µM	Nc1nc2ccc(-c3csc(C(=O)NCc4cnc5ccccn45)c3)cn2n1 [Compound 261]
0.47 µM	18 µM	COc1cc(CNC(=O)c2cc(-c3ccc4nc(N)nn4c3)cs2)ccn1 [Compound 234]
0.86 µM	11 µM	COc1cc(CNC(=O)c2cc(-c3ccc4nc(N)nn4c3)cs2)ccc1F [Compound 231]
0.14 µM	3.5 µM	CC(NC(=O)c1cc(-c2ccc3nc(N)nn3c2)cs1)c1nc2ccccc2n1C (centres unmarked) [Compound 335]
0.37 µM	2.8 µM	Cc1cc(-c2csc(C(=O)NCc3ccccc3)c2)cn2nc(N)nc12 [Compound 373]
0.64 µM	23 µM	Cc1cccc(CNC(=O)c2cc(-c3ccc4nc(N)nn4c3)cs2)c1C [Compound 223]
2.45 µM	7.6 µM	COc1cccc(CN(C)C(=O)c2cc(-c3ccc4nc(N)nn4c3)cs2)c1 [Compound 213]
0.37 µM	23 µM	COc1cncc(CNC(=O)c2cc(-c3ccc4nc(N)nn4c3)cs2)c1 [Compound 235]
0.86 µM	27 µM	CN1CCN(Cc2ccc(CNC(=O)c3cc(-c4ccc5nc(N)nn5c4)cs3)cc2)CC1 [Compound 343]
0.505 µM	3.1 µM	Nc1nc2ccc(-c3csc(C(=O)NCc4ccccc4Cl)c3)cn2n1 [Compound 219]
2.3 µM	> 30 µM	C[C@@H](CO)NC(=O)c1cc(-c2ccc3nc(N)nn3c2)cs1 [Compound 345]
1.6 µM	17 µM	COc1ccnc(CNC(=O)c2cc(-c3ccc4nc(N)nn4c3)cs2)c1 [Compound 256]
3.5 µM	> 30 µM	CCNC(=O)c1cc(-c2ccc3nc(N)nn3c2)cs1 [Compound 270]
0.49 µM	6.8 µM	CC(NC(=O)c1cc(-c2ccc3nc(N)nn3c2)cs1)c1cn[nH]c1 (centres unmarked) [Compound 333]
0.133 µM	25 µM	COc1cccc(CNC(=O)c2cc(-c3ccc4nc(N)nn4c3)cs2)c1 [Compound 182]

The next lines start with the compound.

Structure (SMILES)	IC50 (DLK)	IC50 (LZK)
C[C@H](NC(=O)c1cc(-c2cc(C(=O)NC(C)(C)C)c3nc(N)nn3c2)cs1)c1ccccc1 [Compound 18]	0.012 µM	0.11 µM
CC[C@H](NC(=O)c1cc(-c2cc(C(=O)N[C@H]3CCOC3)n3nc(N)nc3c2)cs1)c1ccc(F)cc1 [Compound 162]	0.0035 µM	0.077 µM
CN1C2CCC1CC(NC(=O)c1cc(-c3ccc4nc(N)nn4c3)cs1)C2 (centres unmarked) [Compound 201]	2.8 µM	> 30 µM
CC[C@H](NC(=O)c1cc(-c2cc(C(=O)NC(C)C)n3nc(N)nc3c2)cs1)c1ccc(F)cc1 [Compound 154]	0.0049 µM	0.089 µM
CC(C)NC(=O)c1cc(-c2csc(C(=O)N[C@@H](C)c3ccccc3)c2)cc2nc(N)nn12 [Compound 146]	0.012 µM	0.071 µM
CC(C)NC(=O)c1cc(-c2csc(C(=O)NC3CC(C)(C)Oc4ccccc43)c2)cn2nc(N)nc12 (centres unmarked) [Compound 131]	0.063 µM	1.5 µM
C[C@H](NC(=O)c1cc(-c2cc(F)c3nc(N)nn3c2)cs1)c1ccc(F)cc1 [Compound 383]	> 30 µM	> 30 µM
Nc1nc2ccc(-c3csc(C(=O)NC4CC4)c3)cn2n1 [Compound 172]	2.6 µM	> 30 µM
C[C@H](NC(=O)c1cc(-c2cc(C(F)(F)F)c3nc(N)nn3c2)cs1)c1ccccc1 [Compound 376]	0.26 µM	4.9 µM
CC(NC(=O)c1cc(-c2ccc3nc(N)nn3c2)cs1)c1cnn(C)c1 (centres unmarked) [Compound 330]	0.64 µM	12 µM
CC(C)NC(=O)c1cc(-c2csc(C(=O)NCc3ccccc3)c2)cn2nc(N)nc12 [Compound 11]	0.017 µM	0.09 µM
Nc1nc2ccc(-c3csc(C(=O)NCc4ccc(CN5CCCC5)cc4)c3)cn2n1 [Compound 344]	0.47 µM	21 µM
CCc1nnc(-c2cc(-c3csc(C(=O)N[C@@H](C)c4ccc(F)cc4)c3)cn3nc(N)nc23)s1 [Compound 397]	0.073 µM	1.1 µM
COC[C@H](C)NC(=O)c1cc(-c2csc(C(=O)N[C@@H](C)c3ccc(F)cc3)c2)cn2nc(N)nc12 [Compound 69]	0.06 µM	1.1 µM
CC(C)NC(=O)c1cc(-c2csc(C(=O)NCc3ccccc3)c2)cc2nc(N)nn12 [Compound 149]	0.028 µM	0.11 µM
CC(C)(C)NC(=O)c1cc(-c2csc(C(=O)NCc3ccccc3)c2)cn2nc(N)nc12 [Compound 16]	0.037 µM	0.13 µM
CN1CCCC(NC(=O)c2cc(-c3ccc4nc(N)nn4c3)cs2)C1 (centres unmarked) [Compound 181]	3.5 µM	> 30 µM
Nc1nc2cc(-c3csc(C(=O)NCc4ccc(F)cc4)c3)ccn2n1 [Compound 363]	0.64 µM	8.7 µM
Nc1nc2ccc(-c3csc(C(=O)NCc4nc(C(F)(F)F)cs4)c3)cn2n1 [Compound 245]	1.3 µM	> 30 µM
CC(C)NC(=O)c1cc(-c2csc(C(=O)NC3CC(C)(C)Oc4ccccc43)c2)cn2nc(N)nc12 (centres unmarked) [Compound 121]	0.017 µM	0.52 µM
Nc1nc2ccc(-c3csc(C(=O)NCc4ccc(OCCN5CCCCC5)cc4)c3)cn2n1 [Compound 279]	2.1 µM	> 30 µM
Nc1nc2ccc(-c3csc(C(=O)NC4(c5ccc(F)cc5)CCCC4)c3)cn2n1 [Compound 310]	0.051 µM	17 µM
Nc1nc2cc(-c3csc(C(=O)NCc4ccc(F)cc4)c3)cc(C(=O)O)n2n1 [Compound 370]	4.4 µM	> 30 µM
NC(=O)c1cc(-c2csc(C(=O)NCc3ccc(F)cc3)c2)cn2nc(N)nc12 [Compound 42]	0.07 µM	0.48 µM
CCNC(=O)c1cc(-c2csc(C(=O)NCc3ccccc3)c2)cn2nc(N)nc12 [Compound 5]	0.16 µM	1.2 µM
CC(C)NC(=O)c1cc(-c2csc(C(=O)N(C)[C@@H](C)c3ccc(F)cc3)c2)cn2nc(N)nc12 [Compound 99]	0.33 µM	2.4 µM
C[C@H](NC(=O)c1cc(-c2cc(C(=O)N[C@H]3CCOC3)c3nc(N)nn3c2)cs1)c1ccccc1 [Compound 102]	0.0043 µM	0.071 µM
Nc1nc2cc(-c3csc(C(=O)NCc4ccccc4)c3)ccn2n1 [Compound 365]	0.5 µM	11 µM
C[C@H](NC(=O)c1cc(-c2cc(C(=O)NC3CCNC3)c3nc(N)nn3c2)cs1)c1ccccc1 (single isomer, unassigned) [Compound 57]	0.092 µM	2.1 µM
